According to PubChem BioAssay (NCI):
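Growth conditions: 96-well plates. Treatment: test compound, 48 hours, 5 concentrations. Analysis: linear interpolation between bracketing concentrations; unreached endpoints set to highest concentration. The concentration for 50% growth inhibition is given as GI50. The concentration for full growth arrest is given as TGI.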

How the values were obtained:
Assay in all cases: inhibition of tumour cell growth, NCI panel, 48 h
HCT-116 colon = test system: HCT-116 colon
M14 melanoma = test system: M14 melanoma
MALME-3M melanoma = test system: MALME-3M melanoma
MDA-MB-231 breast = test system: MDA-MB-231 breast
NCI-H23 lung = test system: NCI-H23 lung
SK-MEL-28 melanoma = test system: SK-MEL-28 melanoma
UACC-257 melanoma = test system: UACC-257 melanoma
A498 renal = test system: A498 renal

| SMILES | GI50 (HCT-116 colon) [µM] | TGI (HCT-116 colon) [µM] | GI50 (M14 melanoma) [µM] | TGI (M14 melanoma) [µM] | GI50 (MALME-3M melanoma) [µM] | TGI (MALME-3M melanoma) [µM] | GI50 (MDA-MB-231 breast) [µM] | TGI (MDA-MB-231 breast) [µM] | GI50 (NCI-H23 lung) [µM] | TGI (NCI-H23 lung) [µM] | GI50 (SK-MEL-28 melanoma) [µM] | TGI (SK-MEL-28 melanoma) [µM] | GI50 (UACC-257 melanoma) [µM] | TGI (UACC-257 melanoma) [µM] | GI50 (A498 renal) [µM] | TGI (A498 renal) [µM] |
| --- | --- | --- | --- | --- | --- | --- | --- | --- | --- | --- | --- | --- | --- | --- | --- | --- |
| Cc1cccc2c1ccc1c3occ(C)c3c(=O)oc21 | > 100 | > 100 | > 100 | > 100 | > 100 | > 100 | > 100 | > 100 | > 100 | > 100 | > 100 | > 100 | > 100 | > 100 |  |  |
| CC(=O)OC1CC(C)c2c(Cl)ncnc21 (stereo not drawn) | > 100 | > 100 | > 100 | > 100 | > 100 | > 100 | > 100 | > 100 | > 100 | > 100 | > 100 | > 100 |  |  | > 100 | > 100 |
| CNc1ccc(C(=O)CC(O)CCC(C)C2OC(=O)CC(O)CC(=O)CC(O)CC(O)CC(O)CC(O)CC3(O)CC(O)C(C(=O)NCCc4ccccn4)C(CC(OC4OC(C)C(O)C(N)C4O)/C=C/C=C/C=C/C=C\C=C/C=C/C=C/C2C)O3)cc1 (stereo not drawn) | 0.741 | > 50 | 0.165 |  | 0.0398 | 0.144 | 6.23 | > 21.2 | 0.118 | 0.271 | 0.161 | > 50 |  |  | 0.136 | 0.464 |
| CCCCC/C=C\C/C=C/CCCCCCCCNC(=O)Nc1ccc([N+](=O)[O-])cc1 | 4.17 | 35.6 | 6.9 | 77.5 | 25.2 | 84.4 | 13.9 | > 100 | 5.19 | 72 | 32.7 | > 100 | 40.7 | > 100 |  |  |
| Cc1ccc(C)c(N2C(=O)C(=O)c3c(C)ccc(C)c32)c1 |  | 32 |  | 39.6 |  | 96.5 |  | 49.8 |  | 70 |  | > 100 |  | 48.2 |  |  |
| N#C/C(=C\c1ccc([N+](=O)[O-])s1)c1nc2cc(Br)ccc2s1 | 0.0713 | 0.388 | 0.142 | 0.323 | 0.134 | 0.291 | 0.179 | 0.43 | 0.279 | 1.35 | 0.346 | > 100 |  |  | 8.05 | > 100 |
| Cc1cc2c(=O)c3ccccc3oc2c(C#N)c1C |  | > 100 |  | > 100 |  | > 100 |  |  |  | > 100 |  | > 100 |  | > 100 |  | > 100 |
